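Each compound was tested at five concentrations against cells in 96-well plates for 48 hours. GI50: concentration for 50% inhibition of growth. TGI: concentration producing complete growth inhibition.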
How the values were obtained:
Experiment in all cases: growth of human tumour cells (NCI), 48 h
SR leukemia = test system: SR leukemia
NCI/ADR-RES ovarian = test system: NCI/ADR-RES ovarian
SK-MEL-2 melanoma = test system: SK-MEL-2 melanoma
HCC-2998 colon = test system: HCC-2998 colon
SF-295 CNS = test system: SF-295 CNS
SK-MEL-28 melanoma = test system: SK-MEL-28 melanoma
UO-31 renal = test system: UO-31 renal
SN12C renal = test system: SN12C renal
CCRF-CEM leukemia = test system: CCRF-CEM leukemia
786-0 renal = test system: 786-0 renal
RXF 393 renal = test system: RXF 393 renal
RPMI-8226 leukemia = test system: RPMI-8226 leukemia
LOX IMVI melanoma = test system: LOX IMVI melanoma
SK-OV-3 ovarian = test system: SK-OV-3 ovarian
MDA-MB-435 = test system: MDA-MB-435
HCT-15 colon = test system: HCT-15 colon
OVCAR-4 ovarian = test system: OVCAR-4 ovarian
A549 NSCLC = test system: A549 NSCLC
NCI-H226 lung = test system: NCI-H226 lung
MOLT-4 leukemia = test system: MOLT-4 leukemia
NCI-H23 lung = test system: NCI-H23 lung
SW-620 colon = test system: SW-620 colon
SF-539 CNS = test system: SF-539 CNS
SNB-75 CNS = test system: SNB-75 CNS
HCT-116 colon = test system: HCT-116 colon
ACHN renal = test system: ACHN renal
HT29 colon = test system: HT29 colon
IGROV1 ovarian = test system: IGROV1 ovarian
MDA-MB-231 breast = test system: MDA-MB-231 breast
SNB-19 CNS = test system: SNB-19 CNS
U251 CNS = test system: U251 CNS
K-562 leukemia = test system: K-562 leukemia
EKVX NSCLC = test system: EKVX NSCLC
CAKI-1 renal = test system: CAKI-1 renal
M14 melanoma = test system: M14 melanoma
HS 578T breast = test system: HS 578T breast
OVCAR-8 ovarian = test system: OVCAR-8 ovarian
BT-549 breast = test system: BT-549 breast
UACC-62 melanoma = test system: UACC-62 melanoma
MALME-3M melanoma = test system: MALME-3M melanoma
NCI-H460 lung = test system: NCI-H460 lung
MCF7 breast = test system: MCF7 breast
T-47D breast = test system: T-47D breast
OVCAR-3 ovarian = test system: OVCAR-3 ovarian
OVCAR-5 ovarian = test system: OVCAR-5 ovarian
TK-10 renal = test system: TK-10 renal
SF-268 CNS = test system: SF-268 CNS
UACC-257 melanoma = test system: UACC-257 melanoma
HOP-62 NSCLC = test system: HOP-62 NSCLC
COLO 205 colon = test system: COLO 205 colon
KM12 colon = test system: KM12 colon
PC-3 prostate = test system: PC-3 prostate
NCI-H522 lung = test system: NCI-H522 lung
SK-MEL-5 melanoma = test system: SK-MEL-5 melanoma
HOP-92 NSCLC = test system: HOP-92 NSCLC
DU-145 prostate = test system: DU-145 prostate
A498 renal = test system: A498 renal
HL-60(TB) leukemia = test system: HL-60(TB) leukemia

`Cc1cc2nc3n(c2cc1C)C(c1c(F)cccc1F)SC3` (stereo not drawn) showed a TGI (SR leukemia) of 42.9 µM, a TGI (NCI/ADR-RES ovarian) of 34.6 µM and a TGI (SK-MEL-2 melanoma) of 39.7 µM. For the same molecule, the TGI (HCC-2998 colon) was 47.8 µM, the TGI (SF-295 CNS) was 54.2 µM and the TGI (SK-MEL-28 melanoma) was 40.2 µM. The TGI (UO-31 renal) was over 10 µM, the TGI (SN12C renal) was 41.9 µM and the TGI (CCRF-CEM leukemia) was 64.3 µM. For the same molecule, the TGI (786-0 renal) was 43.4 µM, the TGI (RXF 393 renal) was 38.8 µM and the TGI (RPMI-8226 leukemia) was 58.5 µM. For the same molecule, the TGI (LOX IMVI melanoma) was 30.3 µM, the TGI (SK-OV-3 ovarian) was over 100 µM and the TGI (MDA-MB-435) was 30.9 µM. It also gave a TGI (HCT-15 colon) of over 10 µM, a TGI (OVCAR-4 ovarian) of 62.2 µM and a TGI (A549 NSCLC) of 42.4 µM. The TGI (NCI-H226 lung) was 23.8 µM, the TGI (MOLT-4 leukemia) was 47 µM and the TGI (NCI-H23 lung) was 38.2 µM. The TGI (SW-620 colon) was 50.9 µM, the TGI (SF-539 CNS) was 38.2 µM and the TGI (SNB-75 CNS) was over 100 µM. The TGI (HCT-116 colon) was 28.1 µM, the TGI (ACHN renal) was 40.6 µM and the TGI (HT29 colon) was 38.9 µM. It also gave a TGI (IGROV1 ovarian) of over 10 µM, a TGI (MDA-MB-231 breast) of 41.4 µM and a TGI (SNB-19 CNS) of 53.4 µM. The TGI (U251 CNS) was 32.3 µM, the TGI (K-562 leukemia) was 63.9 µM and the TGI (EKVX NSCLC) was 75.4 µM. For the same molecule, the TGI (CAKI-1 renal) was 60.3 µM, the TGI (M14 melanoma) was 40.8 µM and the TGI (HS 578T breast) was 54.2 µM. For the same molecule, the TGI (OVCAR-8 ovarian) was over 100 µM, the TGI (BT-549 breast) was 43.7 µM and the TGI (UACC-62 melanoma) was over 10 µM. For the same molecule, the TGI (MALME-3M melanoma) was 65.1 µM, the TGI (NCI-H460 lung) was 38.5 µM and the TGI (MCF7 breast) was 34.2 µM. The TGI (T-47D breast) was over 100 µM, the TGI (OVCAR-3 ovarian) was 91.2 µM and the TGI (OVCAR-5 ovarian) was 43 µM. The TGI (TK-10 renal) was over 100 µM, the TGI (SF-268 CNS) was 56.2 µM and the TGI (UACC-257 melanoma) was over 100 µM. The TGI (HOP-62 NSCLC) was 72 µM, the TGI (COLO 205 colon) was 44.6 µM and the TGI (KM12 colon) was over 10 µM. It also gave a TGI (PC-3 prostate) of over 100 µM, a TGI (NCI-H522 lung) of 44.1 µM and a TGI (SK-MEL-5 melanoma) of 28.2 µM.
In the case of `O=C(c1ccc(O)cc1)c1ccc(C(=O)c2ccc(O)cc2)cc1`, the GI50 (SR leukemia) is reported as over 100 µM, the TGI (SR leukemia) is reported as over 100 µM and the GI50 (SK-MEL-2 melanoma) is reported as over 100 µM. The TGI (SK-MEL-2 melanoma) was over 100 µM, the GI50 (HCC-2998 colon) was over 100 µM and the TGI (HCC-2998 colon) was over 100 µM. It also gave a GI50 (SF-295 CNS) of 6.06 µM, a TGI (SF-295 CNS) of over 100 µM and a GI50 (SK-MEL-28 melanoma) of over 100 µM. For the same molecule, the TGI (SK-MEL-28 melanoma) was over 100 µM, the GI50 (SN12C renal) was over 100 µM and the TGI (SN12C renal) was over 100 µM. The GI50 (786-0 renal) was over 100 µM, the TGI (786-0 renal) was over 100 µM and the GI50 (RXF 393 renal) was 26.5 µM. For the same molecule, the TGI (RXF 393 renal) was 98.3 µM, the GI50 (RPMI-8226 leukemia) was 5.21 µM and the TGI (RPMI-8226 leukemia) was over 100 µM. The GI50 (LOX IMVI melanoma) was over 100 µM, the TGI (LOX IMVI melanoma) was over 100 µM and the GI50 (SK-OV-3 ovarian) was 23.3 µM. It also gave a TGI (SK-OV-3 ovarian) of over 100 µM, a GI50 (MDA-MB-435) of over 100 µM and a TGI (MDA-MB-435) of over 100 µM. The GI50 (HCT-15 colon) was over 100 µM, the TGI (HCT-15 colon) was over 100 µM and the GI50 (OVCAR-4 ovarian) was over 100 µM. For the same molecule, the TGI (OVCAR-4 ovarian) was over 100 µM, the GI50 (A549 NSCLC) was over 100 µM and the TGI (A549 NSCLC) was over 100 µM. For the same molecule, the GI50 (NCI-H226 lung) was 33.5 µM, the TGI (NCI-H226 lung) was over 100 µM and the GI50 (MOLT-4 leukemia) was over 100 µM. For the same molecule, the TGI (MOLT-4 leukemia) was over 100 µM, the GI50 (NCI-H23 lung) was 75.3 µM and the TGI (NCI-H23 lung) was over 100 µM. For the same molecule, the GI50 (SW-620 colon) was over 100 µM, the TGI (SW-620 colon) was over 100 µM and the GI50 (SF-539 CNS) was 80 µM. It also gave a TGI (SF-539 CNS) of over 100 µM, a GI50 (SNB-75 CNS) of 22.5 µM and a TGI (SNB-75 CNS) of 56.2 µM. It also gave a GI50 (HCT-116 colon) of over 100 µM, a TGI (HCT-116 colon) of over 100 µM and a GI50 (ACHN renal) of over 100 µM. The TGI (ACHN renal) was over 100 µM, the GI50 (HT29 colon) was over 100 µM and the TGI (HT29 colon) was over 100 µM. It also gave a GI50 (IGROV1 ovarian) of 6.32 µM, a TGI (IGROV1 ovarian) of over 100 µM and a GI50 (MDA-MB-231 breast) of 46.9 µM. The TGI (MDA-MB-231 breast) was over 100 µM, the GI50 (SNB-19 CNS) was 71.1 µM and the TGI (SNB-19 CNS) was over 100 µM. It also gave a GI50 (U251 CNS) of 16.9 µM, a TGI (U251 CNS) of over 100 µM and a GI50 (EKVX NSCLC) of 8.33 µM. It also gave a TGI (EKVX NSCLC) of over 100 µM, a GI50 (M14 melanoma) of over 100 µM and a TGI (M14 melanoma) of over 100 µM. For the same molecule, the GI50 (HS 578T breast) was 27.4 µM, the TGI (HS 578T breast) was over 100 µM and the GI50 (OVCAR-8 ovarian) was 20.8 µM. For the same molecule, the TGI (OVCAR-8 ovarian) was over 100 µM, the GI50 (BT-549 breast) was 94 µM and the TGI (BT-549 breast) was over 100 µM. For the same molecule, the GI50 (UACC-62 melanoma) was over 100 µM, the TGI (UACC-62 melanoma) was over 100 µM and the GI50 (HOP-92 NSCLC) was 8.04 µM. The TGI (HOP-92 NSCLC) was over 100 µM, the GI50 (MALME-3M melanoma) was 35.7 µM and the TGI (MALME-3M melanoma) was over 100 µM. The GI50 (DU-145 prostate) was over 100 µM, the TGI (DU-145 prostate) was over 100 µM and the GI50 (MCF7 breast) was 75.1 µM. It also gave a TGI (MCF7 breast) of over 100 µM, a GI50 (T-47D breast) of 4.69 µM and a TGI (T-47D breast) of over 100 µM. The GI50 (OVCAR-3 ovarian) was over 100 µM, the TGI (OVCAR-3 ovarian) was over 100 µM and the GI50 (OVCAR-5 ovarian) was over 100 µM. For the same molecule, the TGI (OVCAR-5 ovarian) was over 100 µM, the GI50 (TK-10 renal) was over 100 µM and the TGI (TK-10 renal) was over 100 µM. The GI50 (A498 renal) was over 100 µM, the TGI (A498 renal) was over 100 µM and the GI50 (SF-268 CNS) was 26.6 µM. It also gave a TGI (SF-268 CNS) of over 100 µM, a GI50 (UACC-257 melanoma) of over 100 µM and a TGI (UACC-257 melanoma) of over 100 µM. It also gave a GI50 (HOP-62 NSCLC) of 18 µM, a TGI (HOP-62 NSCLC) of 46.7 µM and a GI50 (COLO 205 colon) of over 100 µM. For the same molecule, the TGI (COLO 205 colon) was over 100 µM, the GI50 (HL-60(TB) leukemia) was over 100 µM and the TGI (HL-60(TB) leukemia) was over 100 µM. It also gave a GI50 (KM12 colon) of over 100 µM, a TGI (KM12 colon) of over 100 µM and a GI50 (PC-3 prostate) of over 100 µM. For the same molecule, the TGI (PC-3 prostate) was over 100 µM, the GI50 (NCI-H522 lung) was 8.05 µM and the TGI (NCI-H522 lung) was over 100 µM. The GI50 (SK-MEL-5 melanoma) was over 100 µM and the TGI (SK-MEL-5 melanoma) was over 100 µM.

Source: PubChem BioAssay (NCI)
